Data taken from ChEMBL document CHEMBL1156104, “Synthesis and anticancer activity of novel amide derivatives of non-acetal deoxoartemisinin” (Bioorg Med Chem Lett, 2009).

Key:
[1] = test system: XF498; assay: Anticancer activity against human XF498 cells by sulforhodamine B assay; format: functional, cell-based
[2] = test system: SK-MEL-2; assay: Anticancer activity against human SK-MEL-2 cells by sulforhodamine B assay; format: functional, cell-based
[3] = test system: A549; assay: Anticancer activity against human A549 cells by sulforhodamine B assay; format: functional, cell-based
[4] = test system: SK-OV-3; assay: Anticancer activity against human SKOV3 cells by sulforhodamine B assay; format: functional, cell-based
[5] = test system: HCT-15; assay: Anticancer activity against human HCT15 cells by sulforhodamine B assay; format: functional, cell-based
[6] = species: Mus musculus; assay: Antiangiogenic activity in mouse assessed as inhibition of VEGF-induced angiogenesis at 10 uM by Matrigel plug assay; format: functional

Row | SMILES | IC50 [1] [µM] | IC50 [2] [µM] | IC50 [3] [µM] | IC50 [4] [µM] | IC50 [5] [µM] | inhibition (INH) [6] [%]
1 | C[C@@H]1CCC2[C@@H](C)[C@@H](CCC(=O)NCCCN3CCN(CCCNC(=O)CC[C@H]4O[C@@H]5O[C@]6(C)CC[C@H]7[C@H](C)CCC([C@H]4C)[C@@]57OO6)CC3)O[C@@H]3O[C@]4(C)CC[C@@H]1[C@@]23OO4 (stereo not given in full) | 0.46 | 0.45 | 0.85 | 0.63 | 0.84 | 
2 | COC(=O)[C@@H](CS)N(Cc1ccccc1)C(=O)CC[C@H]1O[C@@H]2O[C@]3(C)CC[C@H]4[C@H](C)CCC([C@H]1C)[C@@]24OO3 (stereo not given in full) | 2.66 | 3.15 | 3.12 | 2.35 | 1.54 | 
3 | C[C@@H]1CCC2[C@@H](C)[C@@H](CCNC(=O)CC[C@H](NC(=O)CC[C@H]3O[C@@H]4O[C@]5(C)CC[C@H]6[C@H](C)CCC([C@H]3C)[C@@]46OO5)C(=O)NCC[C@H]3O[C@@H]4O[C@]5(C)CC[C@H]6[C@H](C)CCC([C@H]3C)[C@@]46OO5)O[C@@H]3O[C@]4(C)CC[C@@H]1[C@@]23OO4 (stereo not given in full) | 11.6 | 18.2 | 13.5 | 12.4 | 19.8 | 80
4 | C[C@H]1[C@@H](O)O[C@@H]2O[C@@]3(C)CC[C@H]4[C@H](C)CC[C@@H]1[C@@]24OO3 [ARTENIMOL] | 0.54 | 0.75 | 0.63 | 0.85 | 0.46 | 
5 | C[C@@H]1CCC2[C@@H](C)[C@@H](CCNC(=O)CC[C@H]3O[C@@H]4O[C@]5(C)CC[C@H]6[C@H](C)CCC([C@H]3C)[C@@]46OO5)O[C@@H]3O[C@]4(C)CC[C@@H]1[C@@]23OO4 (stereo not given in full) | 5.76 | 9.94 | 7.63 | 4.36 | 7.83 | 
6 | C[C@@H]1CC[C@H]2[C@@H](C)C(=O)O[C@@H]3O[C@@]4(C)CC[C@@H]1[C@]32OO4 [ARTEMISININ] | 16.2 | 12.9 | 15.2 | 14.3 | 17.2 | 
7 | C[C@H]1[C@@H](CCSCC[C@H]2O[C@@H]3O[C@]4(C)CC[C@H]5[C@H](C)CCC([C@H]2C)[C@@]35OO4)O[C@@H]2O[C@]3(C)CCC4[C@H](C)CC[C@@H]1[C@]42OO3 (stereo not given in full) | 5.44 | 7.56 | 5.63 | 4.86 | 3.53 | 
8 | C[C@@H]1CCC2[C@@H](C)[C@@H](CCC(=O)N3CCC(Cc4ccccc4)CC3)O[C@@H]3O[C@]4(C)CC[C@@H]1[C@@]23OO4 (stereo not given in full) | 1.95 | 1.25 | 1.35 | 1.65 | 1.45 | 
9 | CO[C@H]1O[C@@H]2O[C@@]3(C)CC[C@H]4[C@H](C)CC[C@@H]([C@H]1C)[C@@]24OO3 [ARTEMETHER] | 9.1 | 7.24 | 8.54 | 8.03 | 9.66 | 
10 | COc1cccc2c1C(=O)c1c(O)c3c(c(O)c1C2=O)C[C@@](O)(C(=O)CO)C[C@@H]3O[C@H]1C[C@H](N)[C@H](O)[C@H](C)O1 [DOXORUBICIN] |  | 0.028 | 0.075 | 0.046 |  | 
11 | C[C@@H]1CCC2[C@@H](C)[C@@H](CCC(=O)NCc3ccccc3)O[C@@H]3O[C@]4(C)CC[C@@H]1[C@@]23OO4 (stereo not given in full) | 3.46 | 8.36 | 5.13 | 4.75 | 6.22 | 
12 | C[C@@H]1CC[C@H]2[C@H](CBr)CO[C@@H]3O[C@]4(C)CC[C@@H]1[C@]32OO4 | 16.4 | 14.2 | 11.2 | 15.4 | 11.2 | 95
